# In EP0252380B1, “Antibiotic LL-E19020 alpha and beta” (AMERICAN CYANAMID COMPANY, priority 1986, dated 1988):
# Marks after values point to notes of the source that are not given here.
# Tests used:
# Pseudomonas aeruginosa = test: In vitro antibacterial activity, standard agar dilution method (Table II); format: cell-based; conditions: strain 12-4-4
# Streptococcus pneumoniae = test: as above; format: cell-based
# Streptococcus uberis = test: Minimum inhibitory concentration by agar dilution (Table VI); format: cell-based; conditions: 1 strain tested
# Escherichia coli [1] = test: In vitro antibacterial activity, standard agar dilution method (Table II); format: cell-based; conditions: strain 311
# Klebsiella pneumoniae = test: as above; format: cell-based; conditions: strain AD
# Morganella morganii = test: as above; format: cell-based; conditions: strain VGH-84-71
# Pasteurella haemolytica = test: Minimum inhibitory concentration by agar dilution (Table VI); format: cell-based; conditions: 3 strains tested
# [2] = system: Staphylococcus epidermidis; test: In vitro antibacterial activity, standard agar dilution method (Table II); format: cell-based; conditions: strain IO-83-58
# Peptococcus magnus = test: as above; format: cell-based
# [3] = system: Staphylococcus aureus Smith; test: In vivo antibacterial activity in infected mice (Table III); conditions: S. aureus Smith, 30 minutes before infection
# Staphylococcus aureus = test: In vitro antibacterial activity, standard agar dilution method (Table II); format: cell-based
# [4] = system: Mycoplasma gallisepticum "R"; test: Minimum inhibitory concentration assay for Mycoplasma gallisepticum (microdilution, Table VII); conditions: microdilution; "R" strain
# Treponema hyodysenteriae [5] = test: Minimum inhibitory concentration by microdilution (Table VII); format: cell-based
# [6] = system: In Vitro Rumen Fermentation; test: Propionate enhancement activity during in vitro rumen fermentation; format: cell-based, steer; conditions: for A:P: acetate/propionate ratio
# Procedure: The drugs are dissolved or suspended (sonified if necessary) in a 0.1% Tween 20-ethanol-water vehicle and 25-50 ul is added to the incubation. The reaction is terminated with 6N HCl and centrifuged at 20,000 x g. Alliquots of the superinatant are analyzed for volatile fatty acid (VFA) content by gas-liquid chromatography.
# [7] = Growth of chickens and efficiency of feed utilization (Example 5, Table VIII); format: in vivo, Peterson X Arbor Acres chicks; conditions: for Feed/Gain 0-1 Wk: control 1.21; for Feed/Gain 0-2 Wk: control 1.33; for Feed/Gain 0-3 Wk: control 1.43
# Procedure: In this test one day old Peterson X Arbor Acres chicks are sorted into equal weight groups of 5 males and 5 females per cage. Cages are randomized to treatment groups with six replicates per treatment. Each compound is tested at 50 and 100 ppm in the diet and evaluated against chicks receiving a non-medicated diet.
# The chicks are weighed at the start of the test and at 1 week intervals thereafter to the conclusion of said test. The chicks are given free access to feed and water during the entire test period. The feed is weighed when provided to the chicks and excess feed collected and weighed when the cages are cleaned.
# The poultry diet employed in the test is as follows: Vitamin-amino acid premix 0.5% Trace minerals 0.1% Sodium chloride 0.3% Dicalcium phosphate 1.2% Ground limestone 0.5% Stabilized fat 4.0% Dehydrated alfalfa, 17% protein 2.0% Corn gluten meal, 41% protein 5.0% Menhaden fish meal, 60% protein 5.0% Soybean oil meal, 44% protein 30.0% Ground yellow corn, fine to 100.0%
# The vitamin-amino acid premix in the above feed composition is prepared from the following formulation. The expressions of quantity relate to units per kilogram of the finished feed compositions. Butylated hydroxy toluene 125.0 mg d1-Methionine 500.0 mg Vitamin A 3300.0 I.U. Vitamin D₃ 1100.0 I.C.U. Riboflavin 4.4 mg Vitamin E 2.2 I.U. Niacin 27.5 mg Panthothenic acid 8.8 mg Choline chloride 500.0 mg Folic acid 1.43 mg Menadione sodium bisulfate 1.1 mg Vitamin B₁₂ 11.0 mcg Ground yellow corn, fine to […]
# [8] = Weight gain and feed efficiency of broiler chicks (Example 6, Table IX); format: in vivo, Peterson X Arbor Acres chicks; conditions: for Wg Gains And Feed Efficiency % Improvement Over Controls FEED/GAIN: control 1.41
# Escherichia coli [9] = test: Minimum inhibitory concentration by agar dilution (Table VI); format: cell-based; conditions: 2 strains tested
# Treponema hyodysenteriae [10] = test: T. hyodysenteriae disk test (primary in vitro disk diffusion test); conditions: disks soaked in 2.5 mg/ml solution; strain B204 (ATCC 31212); zones of inhibited hemolysis
compound,measurement,setting,value
C/C=C/C=C/[C@@H]1O[C@](O)([C@H](CO[C@H]2C[C@H](OC)[C@H](O[C@@H]3C[C@H](OC)[C@@H](O[C@H]4C[C@H](OC)[C@H](O)[C@H](C)O4)[C@H](C)O3)[C@H](C)O2)C(=O)NC/C=C/C=C(\C)[C@H](OC)[C@@H](C)[C@@H]2C[C@H](O)[C@@H](/C=C/C=C/C=C\C(=O)O)O2)[C@@H](O)[C@H](OC(=O)Cc2ccccc2)C1(C)C [LL-E19020 beta],Minimal Inhibitory Concentration,Pseudomonas aeruginosa,>128 µg/mL
same,Minimal Inhibitory Concentration,Streptococcus pneumoniae; strain K-84-21,0.5 µg/mL
same,Minimal Inhibitory Concentration,Streptococcus pneumoniae; strain SVI,1 µg/mL
same,Minimal Inhibitory Concentration,Streptococcus pneumoniae; strain VGH-84-56,0.5 µg/mL
same,Minimal Inhibitory Concentration,Streptococcus pneumoniae; strain VGH-84-57,1 µg/mL
same,Minimal Inhibitory Concentration,Streptococcus pneumoniae; strain VGH-84-58,0.25 µg/mL
same,Minimal Inhibitory Concentration,Streptococcus pneumoniae; strain VGH-84-59,0.25 µg/mL
same,MIC,Streptococcus uberis,4 µg/mL
same,Minimal Inhibitory Concentration,Escherichia coli [1],>128 µg/mL
same,Minimal Inhibitory Concentration,Klebsiella pneumoniae,>128 µg/mL
same,Minimal Inhibitory Concentration,Morganella morganii,>128 µg/mL
same,MIC,Pasteurella haemolytica,16 µg/mL
same,Minimal Inhibitory Concentration,[2],> 128 µg/mL
same,Minimal Inhibitory Concentration,Peptococcus magnus; strain ATCC 14956,0.5 µg/mL
same,Minimal Inhibitory Concentration,Peptococcus magnus; strain ATCC 29328,0.5 µg/mL
same,Survival Ratios 7 Days After Infection,[3]; single subcutaneous dose 4 mg/kg,1/5
same,Survival Ratios 7 Days After Infection,[3]; single subcutaneous dose 16 mg/kg,1/5
same,Survival Ratios 7 Days After Infection,[3]; single subcutaneous dose 64 mg/kg,1/5
same,Survival Ratios 7 Days After Infection,[3]; single subcutaneous dose 256 mg/kg,1/5
same,Minimal Inhibitory Concentration,Staphylococcus aureus; strain ATCC 25923,> 256 µg/mL
same,Minimal Inhibitory Concentration,Staphylococcus aureus; strain CMC-83-127,> 128 µg/mL
same,Minimal Inhibitory Concentration,Staphylococcus aureus; strain CMC-83-131,> 128 µg/mL
same,Minimal Inhibitory Concentration,Staphylococcus aureus; strain CMC-83-132,> 128 µg/mL
same,Minimal Inhibitory Concentration,Staphylococcus aureus; strain SSC-82-57,> 128 µg/mL
same,Minimal Inhibitory Concentration,Staphylococcus aureus; strain Smith,> 128 µg/mL
same,Minimal Inhibitory Concentration,Staphylococcus aureus; strain VGH-84-45,> 128 µg/mL
same,MIC,[4],0.125 µg/mL
same,MIC,Treponema hyodysenteriae [5]; strain B78 (ATCC 27164),1 µg/mL
same,MIC,Treponema hyodysenteriae [5]; strain B204 (ATCC 31212),0.5 µg/mL
same,A:P,"[6]; Table X, 0.008 PPM, control 2.65",2.63
same,TOTAL VFA,"[6]; Table X, 0.008 PPM, control 159.4",161.2 mM
same,A:P,"[6]; Table X, 0.031 PPM, control 2.65",2.44
same,TOTAL VFA,"[6]; Table X, 0.031 PPM, control 159.4",161.1 mM
same,A:P,"[6]; Table X, 0.125 PPM, control 2.65",2.19
same,TOTAL VFA,"[6]; Table X, 0.125 PPM, control 159.4",161.6 mM
same,A:P,"[6]; Table X, 0.500 PPM, control 2.65",2.15
same,TOTAL VFA,"[6]; Table X, 0.500 PPM, control 159.4",156.7 mM
same,A:P,"[6]; Table X, 2.000 PPM, control 2.65",2.18
same,TOTAL VFA,"[6]; Table X, 2.000 PPM, control 159.4",153.8 mM
same,A:P,"[6]; Table XI, 0.015 PPM, control 2.19",2.03
same,TOTAL VFA,"[6]; Table XI, 0.015 PPM, control 125.3",127.2 mM
same,A:P,"[6]; Table XI, 0.031 PPM, control 2.19",1.98
same,TOTAL VFA,"[6]; Table XI, 0.031 PPM, control 125.3",125.7 mM
same,A:P,"[6]; Table XI, 0.062 PPM, control 2.19",1.96
same,TOTAL VFA,"[6]; Table XI, 0.062 PPM, control 125.3",123.7 mM
same,A:P,"[6]; Table XI, 0.125 PPM, control 2.19",1.92
same,TOTAL VFA,"[6]; Table XI, 0.125 PPM, control 125.3",124.3 mM
same,A:P,"[6]; Table XI, 0.250 PPM, control 2.19",1.93
same,TOTAL VFA,"[6]; Table XI, 0.250 PPM, control 125.3",122.6 mM
same,Weight Gains % Improvement over Controls 0-1 Wk,[7]; 50 ppm in the diet,12.7** %
same,Weight Gains % Improvement over Controls 0-2 Wk,[7]; 50 ppm in the diet,4.5* %
same,Weight Gains % Improvement over Controls 0-3 Wk,[7]; 50 ppm in the diet,5.3* %
same,Feed/Gain 0-1 Wk,[7]; 50 ppm in the diet,1.11*
same,Feed/Gain 0-2 Wk,[7]; 50 ppm in the diet,1.31
same,Feed/Gain 0-3 Wk,[7]; 50 ppm in the diet,1.40
same,Weight Gains % Improvement over Controls 0-1 Wk,[7]; 100 ppm in the diet,10.7* %
same,Weight Gains % Improvement over Controls 0-2 Wk,[7]; 100 ppm in the diet,5.1* %
same,Weight Gains % Improvement over Controls 0-3 Wk,[7]; 100 ppm in the diet,5.9** %
same,Feed/Gain 0-1 Wk,[7]; 100 ppm in the diet,1.13*
same,Feed/Gain 0-2 Wk,[7]; 100 ppm in the diet,1.29
same,Feed/Gain 0-3 Wk,[7]; 100 ppm in the diet,1.38
same,efficiency of feed utilization (statement in words),[7]; over unmedicated controls,increased the efficiency of feed utilization
same,weight gains of chicks (statement in words),[7]; over unmedicated controls,improved the weight gains of chicks
same,Wg Gains And Feed Efficiency % Improvement Over Controls COMBINED,[8]; 12.5 PPM in diet,2.6%
same,Wg Gains And Feed Efficiency % Improvement Over Controls FEMALES,[8]; 12.5 PPM in diet,6.0%
same,Wg Gains And Feed Efficiency % Improvement Over Controls MALES,[8]; 12.5 PPM in diet,0%
same,Wg Gains And Feed Efficiency % Improvement Over Controls FEED/GAIN,[8]; 12.5 PPM in diet,1.33**
same,Wg Gains And Feed Efficiency % Improvement Over Controls COMBINED,[8]; 25 PPM in diet,3.4%
same,Wg Gains And Feed Efficiency % Improvement Over Controls FEMALES,[8]; 25 PPM in diet,5.1%
same,Wg Gains And Feed Efficiency % Improvement Over Controls MALES,[8]; 25 PPM in diet,2.4%
same,Wg Gains And Feed Efficiency % Improvement Over Controls FEED/GAIN,[8]; 25 PPM in diet,1.38*
same,Wg Gains And Feed Efficiency % Improvement Over Controls COMBINED,[8]; 50 PPM in diet,2.2%
same,Wg Gains And Feed Efficiency % Improvement Over Controls FEMALES,[8]; 50 PPM in diet,4.6%
same,Wg Gains And Feed Efficiency % Improvement Over Controls MALES,[8]; 50 PPM in diet,0%
same,Wg Gains And Feed Efficiency % Improvement Over Controls FEED/GAIN,[8]; 50 PPM in diet,1.38*
same,Wg Gains And Feed Efficiency % Improvement Over Controls COMBINED,[8]; 100 PPM in diet,4.5%
same,Wg Gains And Feed Efficiency % Improvement Over Controls FEMALES,[8]; 100 PPM in diet,7.2%
same,Wg Gains And Feed Efficiency % Improvement Over Controls MALES,[8]; 100 PPM in diet,1.7%
same,Wg Gains And Feed Efficiency % Improvement Over Controls FEED/GAIN,[8]; 100 PPM in diet,1.34**
same,Wg Gains And Feed Efficiency % Improvement Over Controls COMBINED,[8]; 200 PPM in diet,2.7%
same,Wg Gains And Feed Efficiency % Improvement Over Controls FEMALES,[8]; 200 PPM in diet,1.4%
same,Wg Gains And Feed Efficiency % Improvement Over Controls MALES,[8]; 200 PPM in diet,4.2%
same,Wg Gains And Feed Efficiency % Improvement Over Controls FEED/GAIN,[8]; 200 PPM in diet,1.35**
same,MIC,Escherichia coli [9],≧ 256 µg/ml
same,ZONE SIZE,Treponema hyodysenteriae [10],11 mm
